From patent US7951772B2, “Tumor-activated prodrug compounds and treatment” (La Region Wallonne, priority 1994, dated 2011)
In brackets after ≈: the same amount, converted by molar mass. Like-named read-outs stand apart in the source and are kept apart here. Blank lines part the entries; values can stand above or below the molecule they belong to.

Experiments:
[1] = test system: conditioned medium from MCF7/6 mammary carcinoma cells; assay: Degradation in conditioned medium from MCF7/6 mammary carcinoma cells (HPLC); details: share of each species by HPLC
[2] = test system: MCF7/6 human mammary carcinoma cells; assay: Cytotoxicity with respect to MCF7/6 tumor cells (72 h, Bradford protein); details: MCF7/6 cells; for IC50: 72 hours with compound then 48 hours without
[3] = test system: MRC5 fibroblast cells; assay: Accumulation in MRC5 normal fibroblast cells (HPLC of cell extracts)
Description: At various times, the accumulation of the prodrugs and of their fluorescent metabolites was determined by HPLC after extraction of the products at basic pH according to a method developed in the laboratory. Accumulations, expressed in μg/mg of cellular proteins, were compared with those of DNR and of L-Leu-DNR. The metabolites were identified by determining the retention times of reference products synthesized in the laboratory.
(§7) After various times, the accumulation of the prodrugs and of their fluorescent metabolites was determined by HPLC after extraction of the products at basic pH according to a method developed in the laboratory. Accumulations, expressed in μg/mg of cellular proteins, were compared with those of DOX and of L-Leu-DOX. The metabolites were identified by determining the retention times of reference products synthesized in the laboratory.

[4] = test system: MCF7/6 human mammary carcinoma cells; assay: Accumulation in MCF7/6 tumor cells (HPLC of cell extracts)
Description: (§8) After various times, the accumulation of the prodrugs and of their fluorescent metabolites were determined by HPLC after extraction of the products at basic pH according to a method developed in the laboratory. Accumulations, expressed in μg/mg of cellular proteins, were compared with those of DNR and of DOX as well as with those of L-Leu-DNR and L-Leu-DOX. The metabolites were identified by determining the retention times of reference products synthesized in the laboratory.
as §7

[5] = test system: female NMRI mice; assay: In vivo acute toxicity, intraperitoneal route, 5 consecutive days; set-up: species or system mouse; details: for mortality: i.p. 5 consecutive days
Description: (§1) In the in vivo study of the acute toxicity of a medicinal product, determination of the median lethal dose (lethal dose for 50% of the animals or LD50) occupies an important place. […] The LD50 is a simple test in which increasing amounts of the test product are administered intravenously (i.v.) in a single injection and intraperitoneally (i.p.) in 5 injections, one injection daily for 5 consecutive days. The mortality of the animals is monitored as a function of time. At the end of the observation period, usually 30 days, the value of the LD50 is obtained by linear regression of the percentage mortality (on a probit scale) as a function of the logarithm of the dose administered (O. K. Chan and A. W. Hayes, Principles and methods for acute toxicity and eye irritancy, in Principles and methods of toxicology, Second edition. Ed. by A. W. Hayes, Raven Press, New York, USA (1989), pp. 169-220; D. Deprez-De Campeneere and A. Trouet. DNA-Anthracycline Complexes. I. Toxicity in mice and chemotherapeutic activity against L1210 Leukaemia off Daunorubicin-DNA and Adriamycin-DNA, Eur. J. Cancer, 16 (1980), pp. 981-986; H. E. Skipper, L. H. Schmidt, A. Goldin and J. M. Venditti. A manual on quantitative drug evaluation in experimental tumor systems, Cancer Chemother. Rep. 17 (1.962), pp. 1-178).
(§2) The acute toxicity of these two drugs was studied via the i.v. and i.p. routes on a single strain of mouse. Female NMRI mice (nonconsanguineous SPF-Han, approximately 5 weeks old and of mean weight 14.6 grams, supplied by IFFA-CREDO Belgium) remained in quarantine for one week.
(§3) Injections were performed systematically in the morning (single injection into the caudal vein for the i.v. route and injections on 5 consecutive days into the peritoneum for the i.p. route), using 1.0 ml syringes and sterile 30 G (i.v.) and 27 G (i.p) needles. All handling of animals was performed with gloves, and maintenance of the animals was performed systematically every week.
(§4) DNR was injected i.v. at doses of 10, 15, 20, 25, 30 and 35 mg/kg and i.p. at doses of 2.0; 2.5; 3.0 and 3.5 mg/kg.
(§5) The concentrations of the solutions were verified by spectrophotometry.
(§6) From the day of injection (DO) onwards, the mice were monitored clinically, with a daily record of dead mice. The weight of the mice was measured almost every day. The observation period was extended beyond one month so that the signs of late toxicity could be spotted more readily. At the end of the study, the surviving mice were sacrificed, according to the standards pertaining to animal experiments (D. B. McGregor. Ethics in experiments on animals, in Experiments in toxicology, First edition. Ed. by D. Anderson and D. M. Conning. The Royal Society of Chemistry and The Universities Press. Belfast, Ireland (1988), pp. 512-522).

[6] = Degradation in human blood at 37 C
[7] = test system: conditioned medium from anthracycline-resistant MCF7 cells (MCF7/ADR line); assay: Degradation in conditioned medium from MCF7/ADR mammary carcinoma cells; format: in vitro ADME, human; details: 37 C, 1 hour
[8] = test system: female NMRI mice; assay: In vivo acute toxicity, intravenous route; set-up: species or system mouse; weight increase of the 3 surviving mice: dose or concentration left out as unconfirmed; details: i.v.; for mice dying: groups of 5
Description: as §1, §2, §3, §4, §5, §6

[9] = test system: female NMRI mice; assay: In vivo acute toxicity, intravenous route; set-up: species or system mouse; details: i.v., total dose of 60 mg/kg as two injections of 30 mg/kg on two consecutive days
[10] = test system: MRC5 fibroblast cells; assay: Cytotoxicity with respect to MRC5 normal cells (72 h, Bradford protein); details: MRC5 cells; for IC50: 72 hours with compound then 48 hours without
[11] = test system: MCF7/6 human mammary carcinoma cells
[12] = test system: MRC5 fibroblast cells
[13] = test system: conditioned medium from MCF7/6 mammary carcinoma cells
[14] = test system: conditioned medium from HepG2 hepatocarcinoma cells
[15] = test system: MCF7/6 human mammary carcinoma cells; remark: listed apart in the source
Description: as §8, §7

[16] = test system: conditioned medium from HT29 colon carcinoma cells
[17] = MRC5 cells, 6 hours of incubation, 10 μg eq. DNR/ml
[18] = MCF7/6 cells, 6 hours of incubation, 10 μg eq. DNR/ml

SMILES: COc1cccc2c1C(=O)c1c(O)c3c(c(O)c1C2=O)C[C@@](O)(C(C)=O)C[C@@H]3O[C@H]1C[C@H](NC(=O)[C@H](CC(C)C)NC(=O)[C@H](C)NC(=O)[C@H](CC(C)C)NC(=O)CCN)[C@H](O)[C@H](C)O1 [β-Ala-Leu-Ala-Leu-DNR, β-alanyl-L-leucyl-L-alanyl-L-leucyldaunorubicin]
- Starting material or Metabolite, Time 0 ([1]; β-Ala-Leu-Ala-Leu-DNR incubated at 37 C in MCF7/6 conditioned medium concentrated 20 of 40 times, time 0): 100%
- Starting material or Metabolite, After 1 hour ([1]; β-Ala-Leu-Ala-Leu-DNR incubated at 37 C in MCF7/6 conditioned medium, 1 hour): 10%
- Starting material or Metabolite, After 2 hours ([1]; β-Ala-Leu-Ala-Leu-DNR incubated at 37 C in MCF7/6 conditioned medium, 2 hours): 2.6%
- times less cytotoxic than DNR ([2]; 72 hours): 244 times
- IC50 [2]: 22.00 ± 7.31 µg/mL (≈ 24.6 µM)
- level of accumulation ([3]; MRC5 cells, 10 μg eq. DNR/ml, 24 hours of incubation): ~3.3 μg/mg of cellular proteins
- Intracellular concentration, DNR formed [3, 17]: 0.08 μg/mg cellular proteins
- Intracellular concentration, Leu-DNR formed [3, 17]: 3.1 μg/mg cellular proteins
- Intracellular concentration, Starting material [3, 17]: 0.03 μg/mg cellular proteins
- cell entry, times less than DNR ([3]; after 6 hours): 300 times
- level of accumulation (unchanged form) ([4]; MCF7/6 cells, 10 μg eq. DNR/ml, 24 hours of incubation): ~1 μg/mg of cellular proteins
- Intracellular concentration, DNR formed [4, 18]: 0.9 μg/mg cellular proteins
- Intracellular concentration, Leu-DNR formed [4, 18]: 4.5 μg/mg cellular proteins
- Intracellular concentration, Starting material [4, 18]: 0.3 μg/mg cellular proteins
- DNR found intracellularly, % of the total intracellular fluorescence ([4]; MCF7/6 cells, after 24 hours of incubation): approximately 40%
- intracellular levels of DNR in MCF7/6 tumor line, times as high as in MRC5 fibroblasts ([4]; after 24 hours of incubation): 12 times
- mortality ([5]; total dose of 60 mg/kg, groups of 5): 2 mice die on day 22 and a third on day 35
- mortality ([5]; total doses of between 10 and 45 mg/kg): no mortality
- times less toxic than DNR (acute toxicity) ([5]; i.p. administration on 5 consecutive days): at least 30 times
- LD50 (dose close to) ([5]; i.p. on 5 consecutive days, total dose): ~60 mg/kg
- increase in mean weight ([5]; i.p., 45 mg/kg, over the next 30 days after 7 stable days): 20%
- day on which surviving mice recover their initial weight ([5]; i.p., total dose of 60 mg/kg): 36 days
- decrease of mean weight ([5]; i.p., total dose of 60 mg/kg, in 15 days): ~15%
- weight gain ([5]; i.p., total doses of between 10 and 45 mg/kg, in 40 days): +40%
- stability when incubated in human blood [6]: stable
- metabolite found [7]: the only metabolite now to be found is L-Leu-DNR
- time of death after injection [8]: ≤ 5 min
- increase of mean weight ([8]; 30 mg/kg, in 40 days): ~40%
- time of death after injection ([8]; 120 mg/kg): ≤ 7 min
- mice dying ([8]; 120 mg/kg): 5
- mortality ([8]; dose of 30 mg/kg): no mortality
- mice dying [8]: 2
- weight increase of the 3 surviving mice ([8]; in 40 days): ~30%
- mortality [9]: no mortality
- times less cytotoxic than DNR ([10]; 72 hours): 2230 times
- IC50 [10]: 23.14 ± 4.81 µg/mL (≈ 25.8 µM)

- Hydrolysis, MCF-7/6 Conditioned Medium [13]: −
- Starting material or Metabolite, After 1 hour [13]: 83%
- Starting material or Metabolite, After 2 hours [13]: 90%
- Starting material or Metabolite, Time 0 [13]: 0%
- main metabolites found, % of the total fluorescence [14]: 27%
- DNR found intracellularly, % of the total intracellular fluorescence [15]: 14%
- main metabolites found, % of the total fluorescence [16]: 82%
SMILES: COc1cccc2c1C(=O)c1c(O)c3c(c(O)c1C2=O)C[C@@](O)(C(C)=O)C[C@@H]3O[C@H]1C[C@H](NC(=O)[C@@H](N)CC(C)C)C(O)[C@H](C)O1 (stereo partly drawn) [L-Leu-DNR, N-L-leucyldaunorubicin]
- IC50 [2]: 1.30 ± 0.56 µg/mL (≈ 2.03 µM)
- times less cytotoxic than DNR [11]: 14 times
- times less cytotoxic than DNR [12]: 172 times
- IC50 [10]: 1.78 ± 0.23 µg/mL (≈ 2.78 µM)
